Measured values taken from patent publication US12697330B2, “Therapeutic methods using vadadustat” (Akebia Therapeutics, Inc., priority 2021, dated 2026).

System: erythropoietin (EPO)
Assay: Phase 2 study, Main Study: pharmacodynamics, Baseline-Unadjusted serum EPO concentration
Format: in vivo, human
Experimental: PK/PD Endpoints. An exposure-response analysis of vadadustat and PD measures were conducted as deemed appropriate. The PK parameters included (but were not limited to) the following: area under concentration-time curve from dosing to last measurable concentration (AUClast), area under concentration-time curve from dosing to infinity (AUCinf), Cmax, apparent total body clearance (CL/F), apparent volume of distribution (Vd/F), and terminal half-life (t1/2). The PD parameters included (but were not limited to) the following: EPO, reticulocytes, iron, ferritin, TIBC, and hepcidin.
PK population: included all randomized subjects who received study drug (vadadustat or epoetin alfa) and had enough drug concentrations to estimate AUC and Cmax. Analysis of this population was based on the dose amount taken at the date of PK sampling for the vadadustat group.
PD parameters for serum EPO concentration are presented by epoetin alfa stratification for vadadustat treatment groups in Table 7, Table 8a and Table 8b (baseline-unadjusted) and Table 9, Table 10a and Table 10b (baseline-adjusted).

[1] = Vada 150 mg, Week 11, High Epoetin Alfa Stratum >90 to <300 U/kg/week
[2] = Vada 150 mg, Week 11, Low Epoetin Alfa Stratum ≤90 U/kg/week
[3] = Vada 300 mg, Week 1 + 1, High Epoetin Alfa Stratum >90 to <300 U/kg/week
[4] = Vada 300 mg, Week 1 + 1, Low Epoetin Alfa Stratum ≤90 U/kg/week
[5] = Vada 300 mg, Week 1, High Epoetin Alfa Stratum >90 to <300 U/kg/week
[6] = Vada 300 mg, Week 1, Low Epoetin Alfa Stratum ≤90 U/kg/week
[7] = Vada 300 mg, Week 11, High Epoetin Alfa Stratum >90 to <300 U/kg/week
[8] = Vada 300 mg, Week 11, Low Epoetin Alfa Stratum ≤90 U/kg/week
[9] = Vada 300 mg, Week 13, High Epoetin Alfa Stratum >90 to <300 U/kg/week
[10] = Vada 450 mg, Week 1 + 1, High Epoetin Alfa Stratum >90 to <300 U/kg/week
[11] = Vada 450 mg, Week 1 + 1, Low Epoetin Alfa Stratum ≤90 U/kg/week
[12] = Vada 450 mg, Week 1, High Epoetin Alfa Stratum >90 to <300 U/kg/week
[13] = Vada 450 mg, Week 1, Low Epoetin Alfa Stratum ≤90 U/kg/week
[14] = Vada 450 mg, Week 11, High Epoetin Alfa Stratum >90 to <300 U/kg/week
[15] = Vada 450 mg, Week 11, Low Epoetin Alfa Stratum ≤90 U/kg/week
[16] = Vada 450 mg, Week 13, Low Epoetin Alfa Stratum ≤90 U/kg/week
[17] = Vada 600 mg, Week 1 + 1, High Epoetin Alfa Stratum >90 to <300 U/kg/week
[18] = Vada 600 mg, Week 1, High Epoetin Alfa Stratum >90 to <300 U/kg/week
[19] = Vada 600 mg, Week 11, High Epoetin Alfa Stratum >90 to <300 U/kg/week
[20] = Vada 600 mg, Week 11, Low Epoetin Alfa Stratum ≤90 U/kg/week
[21] = Vada 600 mg, Week 13, High Epoetin Alfa Stratum >90 to <300 U/kg/week
[22] = Vada 600 mg, Week 13, Low Epoetin Alfa Stratum ≤90 U/kg/week
[23] = Vada 750 mg, Week 11, High Epoetin Alfa Stratum >90 to <300 U/kg/week

O=C(O)CNC(=O)c1ncc(-c2cccc(Cl)c2)cc1O [Compound 1, {[5-(3-chlorophenyl)-3-hydroxypyridine-2-carbonyl]amino}acetic acid]
Baseline-Unadjusted serum EPO AUC0-5, Geometric Mean [1]: 143.0 µg·h/mL | Baseline-Unadjusted serum EPO Cmax, Geometric Mean [1]: 39.0 µg/mL | Baseline-Unadjusted serum EPO Tmax, Median [1]: 1.63 h | Baseline-Unadjusted serum EPO AUC0-5, Geometric Mean [2]: 37.6 µg·h/mL | Baseline-Unadjusted serum EPO Cmax, Geometric Mean [2]: 10.7 µg/mL | Baseline-Unadjusted serum EPO Tmax, Median [2]: 4.78 h | Baseline-Unadjusted serum EPO AUC0-5, Geometric Mean [3]: 74.9 µg·h/mL | Baseline-Unadjusted serum EPO Cmax, Geometric Mean [3]: 20.5 µg/mL | Baseline-Unadjusted serum EPO Tmax, Median [3]: 2.02 h | Baseline-Unadjusted serum EPO AUC0-5, Geometric Mean [4]: 65.7 µg·h/mL | Baseline-Unadjusted serum EPO Cmax, Geometric Mean [4]: 19.3 µg/mL | Baseline-Unadjusted serum EPO Tmax, Median [4]: 2.75 h | Baseline-Unadjusted serum EPO AUC0-5, Geometric Mean [5]: 56.0 µg·h/mL | Baseline-Unadjusted serum EPO Cmax, Geometric Mean [5]: 17.5 µg/mL | Baseline-Unadjusted serum EPO Tmax, Median [5]: 2.00 h | Baseline-Unadjusted serum EPO AUC0-5, Geometric Mean [6]: 58.5 µg·h/mL | Baseline-Unadjusted serum EPO Cmax, Geometric Mean [6]: 17.6 µg/mL | Baseline-Unadjusted serum EPO Tmax, Median [6]: 4.50 h | Baseline-Unadjusted serum EPO AUC0-5, Geometric Mean [7]: 84.4 µg·h/mL | Baseline-Unadjusted serum EPO Cmax, Geometric Mean [7]: 23.5 µg/mL | Baseline-Unadjusted serum EPO Tmax, Median [7]: 0.97 h | Baseline-Unadjusted serum EPO AUC0-5, Geometric Mean [8]: 65.2 µg·h/mL | Baseline-Unadjusted serum EPO Cmax, Geometric Mean [8]: 20.0 µg/mL | Baseline-Unadjusted serum EPO Tmax, Median [8]: 3.29 h | Baseline-Unadjusted serum EPO AUC0-5, Geometric Mean [9]: 125 µg·h/mL | Baseline-Unadjusted serum EPO Cmax, Geometric Mean [9]: 39.2 µg/mL | Baseline-Unadjusted serum EPO Tmax, Median [9]: 0 h | Baseline-Unadjusted serum EPO AUC0-5, Geometric Mean [10]: 61.6 µg·h/mL | Baseline-Unadjusted serum EPO Cmax, Geometric Mean [10]: 18.1 µg/mL | Baseline-Unadjusted serum EPO Tmax, Median [10]: 0 h | Baseline-Unadjusted serum EPO AUC0-5, Geometric Mean [11]: 80.2 µg·h/mL | Baseline-Unadjusted serum EPO Cmax, Geometric Mean [11]: 23.9 µg/mL | Baseline-Unadjusted serum EPO Tmax, Median [11]: 4.51 h | Baseline-Unadjusted serum EPO AUC0-5, Geometric Mean [12]: 79.9 µg·h/mL | Baseline-Unadjusted serum EPO Cmax, Geometric Mean [12]: 23.4 µg/mL | Baseline-Unadjusted serum EPO Tmax, Median [12]: 4.53 h | Baseline-Unadjusted serum EPO AUC0-5, Geometric Mean [13]: 76.4 µg·h/mL | Baseline-Unadjusted serum EPO Cmax, Geometric Mean [13]: 25.5 µg/mL | Baseline-Unadjusted serum EPO Tmax, Median [13]: 4.50 h | Baseline-Unadjusted serum EPO AUC0-5, Geometric Mean [14]: 97.5 µg·h/mL | Baseline-Unadjusted serum EPO Cmax, Geometric Mean [14]: 24.9 µg/mL | Baseline-Unadjusted serum EPO Tmax, Median [14]: 0.88 h | Baseline-Unadjusted serum EPO AUC0-5, Geometric Mean [15]: 65.1 µg·h/mL | Baseline-Unadjusted serum EPO Cmax, Geometric Mean [15]: 17.7 µg/mL | Baseline-Unadjusted serum EPO Tmax, Median [15]: 2.08 h | Baseline-Unadjusted serum EPO AUC0-5, Geometric Mean [16]: 88.4 µg·h/mL | Baseline-Unadjusted serum EPO Cmax, Geometric Mean [16]: 28.8 µg/mL | Baseline-Unadjusted serum EPO Tmax, Median [16]: 3.94 h | Baseline-Unadjusted serum EPO AUC0-5, Geometric Mean [17]: 89.9 µg·h/mL | Baseline-Unadjusted serum EPO Cmax, Geometric Mean [17]: 27.2 µg/mL | Baseline-Unadjusted serum EPO Tmax, Median [17]: 2.47 h | Baseline-Unadjusted serum EPO AUC0-5, Geometric Mean [18]: 102.0 µg·h/mL | Baseline-Unadjusted serum EPO Cmax, Geometric Mean [18]: 33.2 µg/mL | Baseline-Unadjusted serum EPO Tmax, Median [18]: 0 h | Baseline-Unadjusted serum EPO AUC0-5, Geometric Mean [19]: 83.2 µg·h/mL | Baseline-Unadjusted serum EPO Cmax, Geometric Mean [19]: 23.4 µg/mL | Baseline-Unadjusted serum EPO Tmax, Median [19]: 0.92 h | Baseline-Unadjusted serum EPO AUC0-5, Geometric Mean [20]: 53.8 µg·h/mL | Baseline-Unadjusted serum EPO Cmax, Geometric Mean [20]: 18.5 µg/mL | Baseline-Unadjusted serum EPO Tmax, Median [20]: 4.50 h | Baseline-Unadjusted serum EPO AUC0-5, Geometric Mean [21]: 44.0 µg·h/mL | Baseline-Unadjusted serum EPO Cmax, Geometric Mean [21]: 49.9 µg/mL | Baseline-Unadjusted serum EPO Tmax, Median [21]: 4.63 h | Baseline-Unadjusted serum EPO AUC0-5, Geometric Mean [22]: 59.4 µg·h/mL | Baseline-Unadjusted serum EPO Cmax, Geometric Mean [22]: 20.7 µg/mL | Baseline-Unadjusted serum EPO Tmax, Median [22]: 7.08 h | Baseline-Unadjusted serum EPO AUC0-5, Geometric Mean [23]: 84.6 µg·h/mL | Baseline-Unadjusted serum EPO Cmax, Geometric Mean [23]: 21.9 µg/mL | Baseline-Unadjusted serum EPO Tmax, Median [23]: 4.06 h
